Source: patent US20220017478A1, “2-BENZOYLAMINOBENZAMIDE DERIVATIVES AS BCL-3 INHIBITORS” (University College Cardiff Consultants Limited, priority 2013, published 2022)
Read-outs that look alike come from different tables or passages of the source.

Tests used:
[1] = Cell Titre Blue viability assay, MDA-MB-231; conditions: human, MDA-MB-231 cells
Protocol: The viability of cells at experimental endpoints for particular assays was determined using the Cell Titre Blue reagent (Promega, Southampton, UK). This reagent measures the cellular metabolic activity using resazurin as an indicator dye. Viable cells, therefore metabolically active, will reduce resazurin into highly fluorescent resofurin. The resulting fluorescence levels are measured and indicate cell viability.
Cells were plated at low confluency into 96 well plates in 100 μl of complete growth media in triplicates and were incubated at 37° C. in 5% CO2 for the desired test exposure period. For each 100 μl of media in 96 well plates, 20 μl Cell Titre Blue reagent was added followed by incubation for an hour at 37° C. in 5% CO2. Fluorescence was then measured by setting excitation/emission wavelengths to 560/590 nm on a Flurostar Optima plate reader (BMG tabtech, Bucks, UK).
Cell toxicity was evaluated using the Cell Titre Blue viability assay over a range of molarities for 24 hrs.
Selected compounds were dissolved in DMSO and diluted to a highest concentration of 10 μM (0.1% DMSO). In all assays, a DMSO control was always used. Selected compounds were tested for cell toxicity in HEK-293 and MDA-MB-231 cells before being used in cell-based assays. Cell toxicity was evaluated using the Cell Titre Blue viability assay over a range of molarities for 24 hrs

[2] = molecular target: T1, Bcl-3-p50 binding (Homo sapiens, UniProt P20749); test: Indirect sandwich ELISA of Bcl-3 binding to p50 in lysates of treated HEK-293 cells overexpressing FLAG-tagged Bcl-3; type: cell-based
T1 construct: expressed in transfected cells; host or cells: HEK-293
T1 sequence (P20749 1-454): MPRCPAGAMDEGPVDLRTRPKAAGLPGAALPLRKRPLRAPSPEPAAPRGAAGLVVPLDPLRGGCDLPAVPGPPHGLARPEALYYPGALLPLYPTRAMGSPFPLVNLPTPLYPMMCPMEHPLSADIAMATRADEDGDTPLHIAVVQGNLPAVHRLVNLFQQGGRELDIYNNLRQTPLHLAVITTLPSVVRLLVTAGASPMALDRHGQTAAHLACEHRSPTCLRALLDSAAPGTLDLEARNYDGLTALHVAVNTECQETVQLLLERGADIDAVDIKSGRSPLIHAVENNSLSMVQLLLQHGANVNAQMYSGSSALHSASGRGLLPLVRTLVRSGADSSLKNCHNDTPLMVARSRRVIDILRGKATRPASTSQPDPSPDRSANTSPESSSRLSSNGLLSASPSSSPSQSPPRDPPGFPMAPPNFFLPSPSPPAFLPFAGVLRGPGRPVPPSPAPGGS
Protocol: Proteins were extracted from cells in order to be analyzed by ELISA assay. The media from tissue culture flask was removed and cells were rinsed with ice cold PBS (Sigma, Dorset, UK). Appropriate volume of PBS (5 ml for T25, 10 ml for T80) was added into the flask and cells were removed with a cell scraper (Nunc, Leics, UK). The cell suspension was then transferred to 15 ml tubes and centrifuged at 11000 rpm for 5 min at room temperature. Resulting pellet was used for protein extraction immediately or stored at −20° C. prior use.
Non-denatured protein extract was prepared using non-denaturing lysis buffer (Table 1) and used to analyze protein-protein interaction.
Complete mini protease inhibitor tablets (Roche, Welwyn Garden City, UK), 10 mM sodium fluoride (Fluka Biochemika), 1 mM sodium pyrophospate and 1 mM sodium orthovanadate (Sigma, Dorset, UK) were added to the buffer prior use. Cell pellets were resuspended in appropriate volume of non-denaturing buffer (50-200 μl) and cultivated on ice 5 min. Cell suspensions were transferred to microcentrifuge tubes and sonicated on ice (3 times 5 s) and centrifuged at 10000 rpm for 10 min at 4° C. The resultant supernatant was used immediately or stored at −20° C. until required.
In our case, ELISA assay was used to detect either the amount of Flag-Bcl-3 protein alone or Flag-Bcl-3 in complex with p50, using indirect or sandwich ELISA respectively.
For Indirect and sandwich ELISA assay, Non-denaturing cell lysate (above) was diluted with TBS/T [tris buffer saline (TBS, Calbiochem, Merck) supplemented with 0.5% v/v Tween (Sigma, Dorset, UK)] to a concentration of 0.5-1 μg/μl and 100 μl was added onto ANTI-Flag coated flat bottom ELISA plates (Sigma, Dorset, UK). Samples were added in triplicates, while TBS/T was used as a negative control. The plate was cultivated at 37° C. for an hour followed by 3×200 μl washes with TBS/T. Primary antibodies, either Bcl-3 (Santa Cruz Biotech) for indirect ELISA and p50 for sandwich ELISA (Abcam) were added in known volumes (125 μl) and concentrations to each well, cultivated covered from light for an hour at room temperature. Another three 200 μl washes with TBS/T were performed before cultivation with alkaline phospatase (AP) conjugated secondary antibody. Meanwhile, para-nitrophenylphosphate solution (pNPP, Santa Cruz Biotechnology, California, USA) was prepared according to manufacturer's instructions (5 mg of pNPP disodium salt in 5 ml of pNPP substrate buffer). The solution was mixed well and covered from light prior to use. pNPP is a substrate of choice for use with alkaline phosphatase and produces a soluble end product that is yellow in colour. Therefore colour changes can be measured and represent the amount of AP present. After cultivation with secondary antibody, the wells were washed 3×200 μl. TBS/T, pNPP solution was added (50 μl/well) and cultivated for an hour covered from light at room temperature. The reaction was stopped by addition of 3N NaOH (20 μl/well) and the colorimetric changes were measured at 405 nm using a plate reader.
HEK-293 cells overexpressing Bcl-3 were cultivated with Compound 1a over a range of molarities for 24 hrs before cell lysates were obtained under non-denaturing conditions. […] Indirect ELISA assay was performed using Bcl-3 antibody to show an equal loading across samples treated with compound 1a (FIG. 2B) and controls (FIG. 2C).
HEK-293 Bcl-3 WT cells were cultivated with selected compounds over a range of molarities for 24 hrs before cell lysates were obtained under non-denaturing conditions. The dose response curve for selected analogues was generated using GraphPad software (FIG. 8A-D).

[3] = Solubility in commonly used solvents and PBS; type: physicochemical
Protocol: We established that the solubility of Compound 1a in most commonly used solvents is very low (Table 2) which represents an issue for biological evaluation. Therefore a hydrochloric salt of Compound 1a was synthesised and the solubility was analyzed. The obtained salt had improved solubility in water and methanol (Table 2), however it was not soluble (<0.1 g/100 ml) in Phosphate Buffered Saline (PBS). PBS is a water-based salt solution containing sodium chloride, sodium phosphate, potassium chloride and potassium phosphate, while the buffer's phosphate groups help to maintain a constant pH. PBS is non-toxic and is commonly used as an isotonic buffered solution for cell-based assays and animal studies.

[4] = HEK-293 overexpressing Bcl-3, 24 hrs, read-out: IC50 Indirect Sandwich ELISA (Bcl-3-p50 binding)
[5] = Table 3, read-out: ELISA assay (μM) IC50

Row | IC50 [2, 4] | IC50 [2, 5] | IC50 ([2]; HEK-293 Bcl-3 WT, 24 hrs, IC50 could not be established, calculated with GraphPad, read-out: IC50 Indirect Sandwich ELISA, calculated from the dose response curve) | Solubility ([3]; DMSO) | Solubility ([3]; Dichloromethane) | Solubility ([3]; Diethyl ether) | Solubility ([3]; Ethanol) | Solubility ([3]; Ethyl acetate) | Solubility ([3]; Methanol) | Solubility ([3]; water, read-out: Solubility) | Structure (SMILES) | EC50 at 24 h [1] | viability at 24 h, 10 µM [1] | viability at 24 h, 1 mM [1]
1 | 0.0602 µM | 0.0617 µM | – | – | – | – | – | – | – | – | COc1ccc(C(=O)Nc2ccccc2C(=O)NCCN2CCOCC2)cc1 [Compound 1f, 2-[(4-methoxybenzoyl)amino]-N-(2-morpholin-4-ylethyl)benzamide] | 781 µM | > 70% | –
2 | – | – | 15.2 µM | – | – | – | – | – | – | – | O=C(Nc1ccccc1C(=O)NCCCN1CCOCC1)c1ccccc1F [Compound 2a] | – | > 70% | –
3 | 0.386 µM | – | – | 3.71 g/100 ml | 2.91 g/100 ml | 0.09 g/100 ml | 0.09 g/100 ml | 0.34 g/100 ml | 0.20 g/100 ml | < 0.1 mg/mL | O=C(Nc1ccccc1C(=O)NCCN1CCOCC1)c1ccccc1F [Compound 1a, 2-[(2-fluorobenzoyl)amino]-N-(2-morpholin-4-ylethyl)benzamide] | – | > 70% | 72%
4 | 0.119 µM | 0.0119 µM | – | – | – | – | – | – | – | – | COc1cccc(C(=O)NCCN2CCOCC2)c1NC(=O)c1ccccc1F [Compound 3a, 2-[(2-fluorobenzoyl)amino]-3-methoxy-N-(2-morpholin-4-ylethyl) benzamide] | – | > 70% | –
